We go through five compounds from publication PMC6226181 (PLoS ONE, 2018).

Non-standard residues stand in square brackets, D forms with d. Residues, ends and D or L forms follow the SMILES beside them. *: point of attachment. AFC = O=c1cc(C(F)(F)F)c2ccc(N*)cc2o1; AMC = Cc1cc(=O)oc2cc(N*)ccc12

Data set [1] has as its system plasma proteases.
Data set [2] deals with T1, anthrax lethal factor (Bacillus anthracis, UniProt P15917). The format is biochemical. The following applies: 5 hours at 37°C.
Data set [3] concerns the target T1, anthrax lethal factor. The following applies: cited from earlier work.
Data set [4] deals with T1, anthrax lethal factor. It is filed as biochemical. The following applies: 5 hours at 37°C. This is another data set of the same source.

T1 sequence (P15917 34-809 limits assumed): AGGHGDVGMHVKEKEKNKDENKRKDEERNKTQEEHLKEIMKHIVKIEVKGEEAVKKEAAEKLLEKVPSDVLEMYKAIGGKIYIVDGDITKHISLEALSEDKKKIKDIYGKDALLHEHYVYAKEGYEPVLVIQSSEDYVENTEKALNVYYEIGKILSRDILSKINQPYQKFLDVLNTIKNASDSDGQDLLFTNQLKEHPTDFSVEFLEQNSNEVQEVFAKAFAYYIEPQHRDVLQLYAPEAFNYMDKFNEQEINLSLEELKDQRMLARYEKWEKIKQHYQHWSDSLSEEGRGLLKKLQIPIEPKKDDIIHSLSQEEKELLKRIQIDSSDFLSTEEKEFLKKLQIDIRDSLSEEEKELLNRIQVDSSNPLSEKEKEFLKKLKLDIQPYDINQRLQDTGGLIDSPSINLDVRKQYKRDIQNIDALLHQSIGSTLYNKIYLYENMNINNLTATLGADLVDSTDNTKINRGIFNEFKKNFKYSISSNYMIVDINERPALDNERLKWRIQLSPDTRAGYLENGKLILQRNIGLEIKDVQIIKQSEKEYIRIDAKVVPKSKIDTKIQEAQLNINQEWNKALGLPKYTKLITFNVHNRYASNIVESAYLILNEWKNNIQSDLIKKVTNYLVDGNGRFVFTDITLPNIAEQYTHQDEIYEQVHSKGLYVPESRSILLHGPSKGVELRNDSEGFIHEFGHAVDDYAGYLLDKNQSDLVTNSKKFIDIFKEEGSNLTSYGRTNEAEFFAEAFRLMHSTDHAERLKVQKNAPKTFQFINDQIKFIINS

Consider `CC(=O)N[C@@H](CCCNC(=N)N)C(=O)N[C@H](CCCNC(=N)N)C(=O)N[C@H](CCCCN)C(=O)N[C@H](CCCCN)C(=O)N[C@H](C(=O)N[C@@H](Cc1ccc(O)cc1)C(=O)N1CCC[C@H]1C(=O)Nc1ccc2c(C(F)(F)F)cc(=O)oc2c1)C(C)C` [LBL 10108] (Ac-R[dR][dK][dK]VYP-{AFC}), for which the “Non-specific cleavage in plasma in the absence of LF” value in data set [1] is “neither peptide is cleaved in plasma in the absence of LF”.

`CC(=O)N[C@H](CCCNC(=N)N)C(=O)N[C@H](CCCNC(=N)N)C(=O)N[C@H](CCCCN)C(=O)N[C@H](CCCCN)C(=O)N[C@H](C(=O)N[C@@H](Cc1ccc(O)cc1)C(=O)N1CCC[C@H]1C(=O)Nc1ccc2c(C)cc(=O)oc2c1)C(C)C` [LBL 10097] (Ac-[dR][dR][dK][dK]VYP-{AMC}): in data set [2], the “Cleavage by LF in 1:10 diluted bovine plasma (increase in fluorescence)” value is “dependent upon the presence and amount of LF”.

On to “7-methoxy-coumarin-4-acetyl (Mca)-Arg-Arg-Lys-Lys-Val-Tyr-Pro-Try-Pro-Met-Glu -2,4-dinitrophenol (DNP) -Thr-Ile-Ala”, for which the “Cleavage by LF” value in data set [3] is “cleaved by LF after the first proline”.

In the case of `CC(=O)N[C@@H](CCCNC(=N)N)C(=O)N[C@@H](CCCNC(=N)N)C(=O)N[C@@H](CCCCN)C(=O)N[C@@H](CCCCN)C(=O)N[C@H](C(=O)N[C@@H](Cc1ccc(O)cc1)C(=O)N1CCC[C@H]1C(=O)Nc1ccc2c(C)cc(=O)oc2c1)C(C)C` [LBL 10079] (Ac-RRKKVYP-{AMC}), the “Cleavage by LF in 1:10 diluted bovine plasma (increase in fluorescence)” value in data set [2] is recorded as “does not correlate with the amount of LF”.

For the compound `CC(=O)N[C@H](CCCCN)C(=O)N[C@H](CCCCN)C(=O)N[C@H](C(=O)N[C@@H](Cc1ccc(O)cc1)C(=O)N1CCC[C@H]1C(=O)Nc1ccc2c(C)cc(=O)oc2c1)C(C)C` [LBL 10100] (Ac-[dK][dK]VYP-{AMC}), the “Cleavage by LF in assay buffer (increase in fluorescence)” value in data set [4] is listed as “eliminates hydrolysis at the concentrations of LF used”.
